Patent US8084448B2, “Organic compounds” (Novartis AG, priority 2006, dated 2011)
Structures can show the parent of a compound that is named as a salt.

SMILES | melting point [°C]
COC(=O)c1c(O)cccc1OCCCCNC(=O)CCc1ccc(N2CC(=O)NS2(=O)=O)c(O)c1 [Example 110, 2-Hydroxy-6-(4-{3-[3-hydroxy-4-(1,1,4-trioxo-1,2,5-thiadiazolidin-2-yl)-phenyl]-propionylamino}-butoxy)-benzoic Acid Methyl Ester] | 85 to 90
O=C1CN(c2ccc(OCCc3ccccc3)cc2O)S(=O)(=O)N1 [Example 55, 5-(2-Hydroxy-4-phenethyloxyphenyl)-1,1-dioxo-1,2,5-thiadiazolidin-3-one] | 65 to 70
O=C1CN(c2ccc(-c3ccoc3)cc2O)S(=O)(=O)N1 (as salt: potassium) [Example 272, 5-(4-Furan-3-yl-2-hydroxyphenyl)-1,1-dioxo-1,2,5-thiadiazolidin-3-one] | 230 to 235
O=C(O)COc1ccc(N2CC(=O)NS2(=O)=O)c(O)c1 [Example 296, [3-Hydroxy-4-(1,1,4-trioxo-1,2,5-thiadiazolidin-2-yl)-phenoxy]-acetic Acid] | 185 to 188
O=C1CN(c2ccc(S(=O)(=O)c3ccccc3)cc2O)S(=O)(=O)N1 [Example 318, 5-(4-Benzenesulfonyl-2-hydroxyphenyl)-1,1-dioxo-1,2,5-thiadiazolidin-3-one] | 126 to 180
